# What was measured:
# [1] = molecular target: Prostaglandin G/H synthase 1 (Homo sapiens, UniProt P23219); experiment: biochemical; assay type: tissue-based, Platelet; settings: platelet;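 note: inhibition of COX-1 enzyme activity, with arachidonic acid supplied as substrate; in other assays of this panel Not Active means under 50% inhibition at 10 µM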
# [2] = DRUGMATRIX: beta-Lactamase enzyme inhibition (substrate: Nitrocefin); parameters: species or system Bacillus cereus; settings: Not Active = under 50% inhibition at 10 µM
# [3] = molecular target: T1, Vasoactive intestinal polypeptide receptor 1 (Homo sapiens, UniProt P32241); assay type: cell membranes, Membrane; settings: ht-29; note: in other assays of this panel Not Active means under 50% inhibition at 10 µM
# T1 sequence (P32241 whole entry): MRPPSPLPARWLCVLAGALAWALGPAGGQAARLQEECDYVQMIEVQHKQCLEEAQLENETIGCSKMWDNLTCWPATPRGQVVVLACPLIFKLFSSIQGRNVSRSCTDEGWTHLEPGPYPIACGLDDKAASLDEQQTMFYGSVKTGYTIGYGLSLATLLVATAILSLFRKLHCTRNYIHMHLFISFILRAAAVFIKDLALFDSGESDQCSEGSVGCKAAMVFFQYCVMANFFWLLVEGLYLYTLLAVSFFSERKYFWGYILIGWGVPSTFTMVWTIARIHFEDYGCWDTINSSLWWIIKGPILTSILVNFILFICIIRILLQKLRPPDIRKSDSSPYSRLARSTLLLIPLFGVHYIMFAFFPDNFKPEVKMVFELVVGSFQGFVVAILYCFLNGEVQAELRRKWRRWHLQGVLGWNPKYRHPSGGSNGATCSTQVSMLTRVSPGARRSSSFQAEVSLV
# D(4) dopamine receptor = molecular target: T2, D(4) dopamine receptor (Homo sapiens, UniProt P21917); experiment: DRUGMATRIX: Dopamine D4.2 radioligand binding (ligand: [3H] Spiperone); assay type: cell membranes, CHO-K1, Membrane; settings: cho-k1; Not Active = under 50% inhibition at 10 µM
# T2 sequence (P21917 whole entry): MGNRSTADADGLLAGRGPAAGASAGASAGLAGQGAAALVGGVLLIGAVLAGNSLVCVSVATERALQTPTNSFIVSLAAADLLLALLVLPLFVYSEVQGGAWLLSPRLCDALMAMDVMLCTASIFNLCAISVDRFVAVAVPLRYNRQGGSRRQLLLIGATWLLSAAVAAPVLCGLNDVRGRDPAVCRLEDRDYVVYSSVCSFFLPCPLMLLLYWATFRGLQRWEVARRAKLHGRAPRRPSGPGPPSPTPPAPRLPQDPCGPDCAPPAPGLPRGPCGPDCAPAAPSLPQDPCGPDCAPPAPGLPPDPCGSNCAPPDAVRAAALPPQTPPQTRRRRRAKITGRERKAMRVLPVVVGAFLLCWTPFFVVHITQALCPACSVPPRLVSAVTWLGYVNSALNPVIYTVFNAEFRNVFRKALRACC
# [4] = molecular target: Sodium-dependent dopamine transporter (Homo sapiens, UniProt Q01959); experiment: DRUGMATRIX: Dopamine Transporter radioligand binding (ligand: [125I] RTI-55); assay type: cell membranes, CHO-K1, Membrane; settings: Not Active = under 50% inhibition at 10 µM
# [5] = DRUGMATRIX: ATPase, Na+/K+ enzyme inhibition (substrate: ATP); assay type: tissue-based, Sus scrofa, Heart; settings: Not Active = under 50% inhibition at 10 µM
# Mu-type opioid receptor = Mu-type opioid receptor (Homo sapiens, UniProt P35372); experiment: DRUGMATRIX: Opiate mu (OP3, MOP) radioligand binding (ligand: [3H] Diprenorphine); assay type: cell membranes, CHO-K1, Membrane; settings: cho-k1; Not Active = under 50% inhibition at 10 µM
# Mu-type opioid receptor, sequence (P35372 whole entry): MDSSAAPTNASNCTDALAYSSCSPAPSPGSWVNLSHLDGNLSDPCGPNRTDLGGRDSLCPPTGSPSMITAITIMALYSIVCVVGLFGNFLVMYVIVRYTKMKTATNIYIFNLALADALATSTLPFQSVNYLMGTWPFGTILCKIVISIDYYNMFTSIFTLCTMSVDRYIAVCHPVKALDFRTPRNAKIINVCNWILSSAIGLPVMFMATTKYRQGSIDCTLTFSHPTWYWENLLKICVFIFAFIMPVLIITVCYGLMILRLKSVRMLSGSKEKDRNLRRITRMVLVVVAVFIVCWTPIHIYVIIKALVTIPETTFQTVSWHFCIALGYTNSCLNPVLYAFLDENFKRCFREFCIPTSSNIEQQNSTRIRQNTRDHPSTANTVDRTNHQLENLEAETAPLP
# Prostaglandin G/H synthase 1, sequence (P23219 whole entry): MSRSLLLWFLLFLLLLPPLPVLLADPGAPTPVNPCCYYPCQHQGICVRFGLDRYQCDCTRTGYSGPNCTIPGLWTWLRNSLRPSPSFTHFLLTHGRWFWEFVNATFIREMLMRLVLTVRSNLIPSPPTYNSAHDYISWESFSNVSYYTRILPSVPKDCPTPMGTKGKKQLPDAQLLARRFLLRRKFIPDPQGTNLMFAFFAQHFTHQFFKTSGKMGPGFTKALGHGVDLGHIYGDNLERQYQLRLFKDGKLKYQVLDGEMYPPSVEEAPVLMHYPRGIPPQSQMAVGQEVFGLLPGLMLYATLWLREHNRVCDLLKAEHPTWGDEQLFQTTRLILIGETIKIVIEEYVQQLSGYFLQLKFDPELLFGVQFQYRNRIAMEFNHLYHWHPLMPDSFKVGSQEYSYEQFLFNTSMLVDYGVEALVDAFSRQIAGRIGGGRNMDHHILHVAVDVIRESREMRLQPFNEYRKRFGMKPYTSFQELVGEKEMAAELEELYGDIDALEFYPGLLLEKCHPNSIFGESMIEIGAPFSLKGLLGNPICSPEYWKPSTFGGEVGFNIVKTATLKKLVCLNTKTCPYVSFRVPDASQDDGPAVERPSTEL
# Sodium-dependent dopamine transporter, sequence (Q01959 whole entry): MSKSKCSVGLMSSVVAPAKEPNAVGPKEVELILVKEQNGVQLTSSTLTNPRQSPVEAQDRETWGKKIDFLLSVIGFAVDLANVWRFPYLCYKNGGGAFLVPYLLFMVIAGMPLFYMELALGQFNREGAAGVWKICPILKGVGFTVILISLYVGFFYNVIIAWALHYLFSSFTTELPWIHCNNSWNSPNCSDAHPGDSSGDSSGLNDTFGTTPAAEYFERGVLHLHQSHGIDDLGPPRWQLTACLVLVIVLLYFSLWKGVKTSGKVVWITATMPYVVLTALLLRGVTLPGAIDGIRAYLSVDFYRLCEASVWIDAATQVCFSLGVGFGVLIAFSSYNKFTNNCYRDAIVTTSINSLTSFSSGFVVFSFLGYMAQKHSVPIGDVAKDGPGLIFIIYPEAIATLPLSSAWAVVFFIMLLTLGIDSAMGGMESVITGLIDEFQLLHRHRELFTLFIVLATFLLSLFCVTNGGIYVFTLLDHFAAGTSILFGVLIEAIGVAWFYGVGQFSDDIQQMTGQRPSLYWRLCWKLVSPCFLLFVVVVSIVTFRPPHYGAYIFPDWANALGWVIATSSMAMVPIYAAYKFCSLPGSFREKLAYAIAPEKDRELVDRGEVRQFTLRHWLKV
Compound,IC50 [1],IC50 [2],Ki [2],IC50 [3],IC50 (D(4) dopamine receptor),IC50 ([4]; cho-k1),IC50 [5],Ki [5],IC50 (Mu-type opioid receptor),Ki [1],Ki [3],Ki (D(4) dopamine receptor),Ki ([4]; cho-k1),IC50 ([4]; read-out: IC50),Ki ([4]; read-out: Ki),IC50 ([2]; read-out: IC50)
Cc1ccc(/N=C/N(C)/C=N/c2ccc(C)cc2C)c(C)c1 [AMITRAZ],Not Active,Not Active,Not Active,Not Active,Not Active,Not Active,Not Active,Not Active,–,–,–,–,–,–,–,–
CCOC(=O)C1=C(COCCN)NC(C)=C(C(=O)OC)C1c1ccccc1Cl (stereo unspecified) [AMLODIPINE],Not Active,Not Active,Not Active,Not Active,Not Active,–,Not Active,Not Active,Not Active,–,–,–,–,–,–,–
COc1ccc(C[C@H]2NC[C@H](O)[C@H]2OC(C)=O)cc1 [ANISOMYCIN],Not Active,Not Active,Not Active,Not Active,Not Active,Not Active,Not Active,Not Active,–,Not Active,Not Active,Not Active,Not Active,–,–,–
CC(NC(C)(C)C)C(=O)c1cccc(Cl)c1 (stereo unspecified) [BUPROPION],Not Active,Not Active,Not Active,Not Active,Not Active,–,Not Active,Not Active,Not Active,–,–,–,–,–,–,–
Cc1ccc(-c2cc(C(F)(F)F)nn2-c2ccc(S(N)(=O)=O)cc2)cc1 [CELECOXIB],–,Not Active,Not Active,Not Active,Not Active,–,Not Active,Not Active,Not Active,–,–,–,–,2.43 µM,1.93 µM,–
O=C(O)CCCc1ccc(N(CCCl)CCCl)cc1 [CHLORAMBUCIL],Not Active,Not Active,Not Active,Not Active,Not Active,Not Active,Not Active,Not Active,–,–,–,–,–,–,–,–
CN(C)CCCN1c2ccccc2Sc2ccc(Cl)cc21 [CHLORPROMAZINE],Not Active,Not Active,Not Active,Not Active,–,–,Not Active,Not Active,–,–,–,–,–,–,–,–
CC1=C2C(=CO[C@H](C)[C@H]2C)C(O)=C(C(=O)O)C1=O [CITRININ],Not Active,Not Active,Not Active,Not Active,Not Active,Not Active,Not Active,Not Active,–,–,–,–,–,–,–,–
CC(C)(C)NCC(O)c1cc(Cl)c(N)c(Cl)c1 (stereo unspecified) [CLENBUTEROL],Not Active,Not Active,Not Active,Not Active,Not Active,Not Active,Not Active,Not Active,–,–,–,–,–,–,–,–
CNCCCN1c2ccccc2CCc2ccccc21 [DESIPRAMINE],Not Active,Not Active,Not Active,Not Active,Not Active,–,Not Active,Not Active,Not Active,–,–,–,–,–,–,–
COc1cc2nc(N3CCN(C(=O)C4COc5ccccc5O4)CC3)nc(N)c2cc1OC (stereo unspecified) [DOXAZOSIN],Not Active,Not Active,Not Active,Not Active,Not Active,–,Not Active,Not Active,Not Active,–,–,–,–,–,–,–
CADMIUM ACETATE,Not Active,Not Active,Not Active,Not Active,Not Active,Not Active,Not Active,Not Active,–,Not Active,Not Active,Not Active,Not Active,–,–,–
LEAD (II) ACETATE,Not Active,Not Active,Not Active,Not Active,Not Active,Not Active,Not Active,Not Active,–,Not Active,Not Active,Not Active,Not Active,–,–,–
LIPOPOLYSACCHARIDE E. COLI O55:B5,Not Active,–,–,Not Active,Not Active,Not Active,Not Active,Not Active,–,Not Active,Not Active,Not Active,Not Active,–,–,0.0387 µM
